For three molecules, residual activity results are on record in ChEMBL document CHEMBL1152560, “Substituted 2-arylbenzothiazoles as kinase inhibitors: hit-to-lead optimization” (Bioorg Med Chem, 2009).

The term residual activity denotes the signal under treatment as a percentage of the control signal.

Each structure is given as a SMILES string.

One test concerns the target Angiopoietin-1 receptor (Homo sapiens, UniProt Q02763). The experiment in a line: Residual activity of TIE2 at 0.1 uM by microplate scintillation counting.
Test [1] addresses T1, Serine/threonine-protein kinase TAO2 (Homo sapiens) (UniProt Q9UL54).
T1 sequence (whole entry): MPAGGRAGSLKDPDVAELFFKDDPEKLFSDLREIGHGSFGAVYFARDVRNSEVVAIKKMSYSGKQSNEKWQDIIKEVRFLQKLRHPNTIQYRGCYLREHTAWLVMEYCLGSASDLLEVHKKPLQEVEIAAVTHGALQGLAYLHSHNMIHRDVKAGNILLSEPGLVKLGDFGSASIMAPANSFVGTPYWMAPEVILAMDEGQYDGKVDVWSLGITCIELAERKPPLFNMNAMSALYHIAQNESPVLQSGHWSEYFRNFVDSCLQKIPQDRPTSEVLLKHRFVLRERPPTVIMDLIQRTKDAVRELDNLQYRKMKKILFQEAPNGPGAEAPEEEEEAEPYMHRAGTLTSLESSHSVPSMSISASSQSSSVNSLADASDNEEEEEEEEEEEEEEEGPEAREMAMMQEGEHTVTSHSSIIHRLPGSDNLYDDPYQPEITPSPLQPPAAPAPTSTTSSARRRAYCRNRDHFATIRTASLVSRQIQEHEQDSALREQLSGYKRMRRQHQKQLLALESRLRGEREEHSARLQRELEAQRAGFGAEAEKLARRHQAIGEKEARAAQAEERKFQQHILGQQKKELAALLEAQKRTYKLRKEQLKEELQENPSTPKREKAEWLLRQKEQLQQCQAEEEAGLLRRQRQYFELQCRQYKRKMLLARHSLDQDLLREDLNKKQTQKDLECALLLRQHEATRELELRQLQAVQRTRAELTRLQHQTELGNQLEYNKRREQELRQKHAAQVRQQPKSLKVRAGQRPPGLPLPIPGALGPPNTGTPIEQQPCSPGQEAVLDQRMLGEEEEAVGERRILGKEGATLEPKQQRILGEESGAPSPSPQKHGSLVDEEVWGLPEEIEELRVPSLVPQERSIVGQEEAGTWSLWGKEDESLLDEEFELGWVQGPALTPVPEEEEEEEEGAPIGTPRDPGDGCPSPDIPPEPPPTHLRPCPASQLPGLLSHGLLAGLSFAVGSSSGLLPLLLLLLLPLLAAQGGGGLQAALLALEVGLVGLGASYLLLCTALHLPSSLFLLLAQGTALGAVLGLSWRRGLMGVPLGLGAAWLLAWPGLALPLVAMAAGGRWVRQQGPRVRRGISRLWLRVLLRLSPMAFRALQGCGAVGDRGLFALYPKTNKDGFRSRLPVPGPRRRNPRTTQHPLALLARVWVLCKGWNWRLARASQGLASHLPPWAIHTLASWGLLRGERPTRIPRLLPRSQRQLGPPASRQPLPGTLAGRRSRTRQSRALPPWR
The experiment in a line: Residual activity of TAOK2 at 1 uM by microplate scintillation counting.

Test [2] addresses T2, Activin receptor type-1B (Homo sapiens) (UniProt P36896).
T2 sequence (whole entry): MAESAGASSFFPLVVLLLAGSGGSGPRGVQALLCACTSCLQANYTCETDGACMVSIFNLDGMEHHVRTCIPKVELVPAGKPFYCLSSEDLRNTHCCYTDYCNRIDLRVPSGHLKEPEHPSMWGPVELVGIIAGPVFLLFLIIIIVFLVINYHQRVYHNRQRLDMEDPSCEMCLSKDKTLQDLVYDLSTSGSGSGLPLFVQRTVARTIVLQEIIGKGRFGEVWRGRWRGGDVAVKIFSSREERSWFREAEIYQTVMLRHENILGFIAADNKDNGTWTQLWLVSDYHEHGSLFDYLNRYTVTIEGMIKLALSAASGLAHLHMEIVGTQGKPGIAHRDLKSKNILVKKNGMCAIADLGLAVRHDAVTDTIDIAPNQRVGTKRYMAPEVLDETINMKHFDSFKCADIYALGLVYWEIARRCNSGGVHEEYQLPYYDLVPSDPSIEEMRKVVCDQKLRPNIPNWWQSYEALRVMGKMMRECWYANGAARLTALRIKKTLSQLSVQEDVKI
The test can be described thus: Residual activity of ACVR1B at 1 uM by microplate scintillation counting.

Test [3] deals with T3, Serine/threonine-protein kinase Sgk3 (Homo sapiens) (UniProt Q96BR1).
T3 sequence (whole entry): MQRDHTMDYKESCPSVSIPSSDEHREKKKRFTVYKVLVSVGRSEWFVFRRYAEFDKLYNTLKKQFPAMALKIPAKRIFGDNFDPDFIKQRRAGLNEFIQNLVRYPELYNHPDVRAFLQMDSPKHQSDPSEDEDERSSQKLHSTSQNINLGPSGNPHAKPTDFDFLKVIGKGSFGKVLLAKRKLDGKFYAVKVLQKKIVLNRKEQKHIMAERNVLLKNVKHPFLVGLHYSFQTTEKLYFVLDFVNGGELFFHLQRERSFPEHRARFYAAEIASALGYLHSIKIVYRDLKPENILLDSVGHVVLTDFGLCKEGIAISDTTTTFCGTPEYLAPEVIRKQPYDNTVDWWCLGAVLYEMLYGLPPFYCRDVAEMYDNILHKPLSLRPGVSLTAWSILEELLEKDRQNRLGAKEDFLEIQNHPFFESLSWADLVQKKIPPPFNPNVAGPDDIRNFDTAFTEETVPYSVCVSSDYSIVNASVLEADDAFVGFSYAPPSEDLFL
The experiment in a line: Residual activity of SGK3 at 10 uM by microplate scintillation counting.

Test [4] has as its target Receptor-type tyrosine-protein kinase FLT3 (Homo sapiens) (UniProt P36888). The experiment in a line: Residual activity of wild type FLT3 at 1 uM by microplate scintillation counting.
Test [5] concerns the target Proto-oncogene tyrosine-protein kinase ROS (Homo sapiens) (UniProt P08922). The experiment in a line: Residual activity of ROS at 10 uM by microplate scintillation counting.
The target in test [6] is Serine/threonine-protein kinase 33 (Homo sapiens) (UniProt Q9BYT3). The experiment in a line: Residual activity of STK33 at 0.1 uM by microplate scintillation counting.
Test [7] has as its target Serine/threonine-protein kinase 26 (Homo sapiens) (UniProt Q9P289). The test can be described thus: Residual activity of MST4 at 10 uM by microplate scintillation counting.
Test [8] concerns the target Misshapen-like kinase 1 (Homo sapiens) (UniProt Q8N4C8). The test can be described thus: Residual activity of MINK1 at 0.1 uM by microplate scintillation counting.
The target of test [9] is Platelet-derived growth factor receptor alpha (Homo sapiens) (UniProt P16234). The test can be described thus: Residual activity of PDGFRalpha at 1 uM by microplate scintillation counting.

Chain of Serine/threonine-protein kinase 26 (Homo sapiens) (Q9P289 2-416 limits assumed): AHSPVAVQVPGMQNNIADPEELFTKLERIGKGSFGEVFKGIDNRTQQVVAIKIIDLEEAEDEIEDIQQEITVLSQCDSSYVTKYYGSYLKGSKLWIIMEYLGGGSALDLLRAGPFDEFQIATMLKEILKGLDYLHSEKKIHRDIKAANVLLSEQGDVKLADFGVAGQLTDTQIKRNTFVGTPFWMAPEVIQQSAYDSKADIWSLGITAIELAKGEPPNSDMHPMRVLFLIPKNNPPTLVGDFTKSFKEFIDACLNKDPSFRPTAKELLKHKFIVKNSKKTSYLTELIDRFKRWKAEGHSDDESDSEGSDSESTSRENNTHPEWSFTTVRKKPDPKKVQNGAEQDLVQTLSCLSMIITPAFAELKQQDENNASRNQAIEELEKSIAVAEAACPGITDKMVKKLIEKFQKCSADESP
Chain of Serine/threonine-protein kinase 33 (Homo sapiens) (Q9BYT3 whole entry, looked up): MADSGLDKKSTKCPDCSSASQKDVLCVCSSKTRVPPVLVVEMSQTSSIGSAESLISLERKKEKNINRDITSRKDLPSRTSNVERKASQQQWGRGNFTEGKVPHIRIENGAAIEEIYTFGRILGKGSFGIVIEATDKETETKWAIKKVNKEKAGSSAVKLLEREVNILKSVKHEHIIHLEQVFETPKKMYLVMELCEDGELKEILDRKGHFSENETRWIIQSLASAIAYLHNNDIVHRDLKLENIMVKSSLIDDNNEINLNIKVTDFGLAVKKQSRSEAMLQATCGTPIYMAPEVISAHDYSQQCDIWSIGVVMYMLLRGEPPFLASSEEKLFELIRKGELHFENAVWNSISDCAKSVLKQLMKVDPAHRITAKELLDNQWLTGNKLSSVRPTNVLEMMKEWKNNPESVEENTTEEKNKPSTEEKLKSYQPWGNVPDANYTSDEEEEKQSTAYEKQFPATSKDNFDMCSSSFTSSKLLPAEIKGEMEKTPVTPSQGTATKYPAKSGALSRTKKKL
Chain of Proto-oncogene tyrosine-protein kinase ROS (Homo sapiens) (P08922 whole entry): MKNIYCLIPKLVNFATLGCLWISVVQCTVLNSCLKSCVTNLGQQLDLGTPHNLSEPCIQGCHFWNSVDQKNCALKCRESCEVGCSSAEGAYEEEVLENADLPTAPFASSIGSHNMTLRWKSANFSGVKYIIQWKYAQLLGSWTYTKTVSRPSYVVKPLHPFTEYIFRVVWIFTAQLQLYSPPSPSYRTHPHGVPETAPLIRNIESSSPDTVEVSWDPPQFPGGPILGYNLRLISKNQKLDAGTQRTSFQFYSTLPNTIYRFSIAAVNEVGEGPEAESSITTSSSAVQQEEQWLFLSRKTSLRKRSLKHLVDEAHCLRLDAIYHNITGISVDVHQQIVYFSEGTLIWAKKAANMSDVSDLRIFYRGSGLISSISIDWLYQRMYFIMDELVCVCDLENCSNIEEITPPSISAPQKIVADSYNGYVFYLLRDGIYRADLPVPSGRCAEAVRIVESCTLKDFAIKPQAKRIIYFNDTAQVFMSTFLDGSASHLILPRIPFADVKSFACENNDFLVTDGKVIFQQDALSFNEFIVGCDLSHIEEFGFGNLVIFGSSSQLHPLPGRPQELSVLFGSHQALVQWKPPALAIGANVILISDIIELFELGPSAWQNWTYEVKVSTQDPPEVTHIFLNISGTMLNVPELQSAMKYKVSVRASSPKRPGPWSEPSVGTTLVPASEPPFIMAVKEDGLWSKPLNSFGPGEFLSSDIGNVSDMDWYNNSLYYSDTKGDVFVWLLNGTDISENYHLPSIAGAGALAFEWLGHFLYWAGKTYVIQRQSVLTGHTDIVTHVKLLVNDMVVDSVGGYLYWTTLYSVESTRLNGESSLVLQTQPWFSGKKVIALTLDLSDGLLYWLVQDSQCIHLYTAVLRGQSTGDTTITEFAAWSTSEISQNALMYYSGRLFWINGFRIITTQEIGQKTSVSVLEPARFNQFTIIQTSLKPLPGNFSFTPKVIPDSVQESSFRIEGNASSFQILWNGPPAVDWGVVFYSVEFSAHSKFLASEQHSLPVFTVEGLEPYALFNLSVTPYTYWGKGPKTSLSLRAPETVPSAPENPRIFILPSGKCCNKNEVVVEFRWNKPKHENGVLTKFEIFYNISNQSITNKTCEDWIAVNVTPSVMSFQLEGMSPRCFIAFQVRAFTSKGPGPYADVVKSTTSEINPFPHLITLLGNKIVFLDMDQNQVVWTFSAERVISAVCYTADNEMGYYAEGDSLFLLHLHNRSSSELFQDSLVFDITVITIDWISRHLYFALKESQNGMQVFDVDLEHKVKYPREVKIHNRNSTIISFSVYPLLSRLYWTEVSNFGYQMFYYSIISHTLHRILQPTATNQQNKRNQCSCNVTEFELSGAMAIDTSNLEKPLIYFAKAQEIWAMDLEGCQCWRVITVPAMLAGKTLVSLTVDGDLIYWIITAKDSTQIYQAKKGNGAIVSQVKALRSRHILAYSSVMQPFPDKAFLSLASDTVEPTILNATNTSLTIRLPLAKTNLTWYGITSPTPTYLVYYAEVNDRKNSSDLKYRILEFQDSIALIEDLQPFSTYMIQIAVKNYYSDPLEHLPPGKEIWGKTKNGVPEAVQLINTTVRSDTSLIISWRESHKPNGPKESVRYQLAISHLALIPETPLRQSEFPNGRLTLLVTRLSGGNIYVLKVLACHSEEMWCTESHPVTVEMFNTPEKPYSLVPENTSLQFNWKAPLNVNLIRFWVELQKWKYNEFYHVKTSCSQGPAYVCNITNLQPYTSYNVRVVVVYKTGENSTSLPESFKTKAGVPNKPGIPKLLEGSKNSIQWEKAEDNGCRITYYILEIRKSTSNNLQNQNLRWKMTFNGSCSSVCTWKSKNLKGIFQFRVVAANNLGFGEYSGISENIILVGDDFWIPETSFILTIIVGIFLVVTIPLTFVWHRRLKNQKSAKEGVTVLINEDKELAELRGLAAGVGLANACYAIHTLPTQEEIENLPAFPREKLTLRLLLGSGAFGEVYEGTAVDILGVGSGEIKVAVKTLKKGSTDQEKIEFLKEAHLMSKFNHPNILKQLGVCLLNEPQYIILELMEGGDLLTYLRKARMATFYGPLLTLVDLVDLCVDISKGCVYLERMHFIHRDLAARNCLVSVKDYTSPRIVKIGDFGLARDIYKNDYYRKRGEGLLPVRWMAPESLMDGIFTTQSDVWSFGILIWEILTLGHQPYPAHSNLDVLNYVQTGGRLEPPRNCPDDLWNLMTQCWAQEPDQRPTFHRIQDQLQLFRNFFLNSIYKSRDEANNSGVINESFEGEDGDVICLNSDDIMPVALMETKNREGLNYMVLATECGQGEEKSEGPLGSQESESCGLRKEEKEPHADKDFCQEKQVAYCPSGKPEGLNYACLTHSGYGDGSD
Chain of Receptor-type tyrosine-protein kinase FLT3 (Homo sapiens) (P36888 whole entry): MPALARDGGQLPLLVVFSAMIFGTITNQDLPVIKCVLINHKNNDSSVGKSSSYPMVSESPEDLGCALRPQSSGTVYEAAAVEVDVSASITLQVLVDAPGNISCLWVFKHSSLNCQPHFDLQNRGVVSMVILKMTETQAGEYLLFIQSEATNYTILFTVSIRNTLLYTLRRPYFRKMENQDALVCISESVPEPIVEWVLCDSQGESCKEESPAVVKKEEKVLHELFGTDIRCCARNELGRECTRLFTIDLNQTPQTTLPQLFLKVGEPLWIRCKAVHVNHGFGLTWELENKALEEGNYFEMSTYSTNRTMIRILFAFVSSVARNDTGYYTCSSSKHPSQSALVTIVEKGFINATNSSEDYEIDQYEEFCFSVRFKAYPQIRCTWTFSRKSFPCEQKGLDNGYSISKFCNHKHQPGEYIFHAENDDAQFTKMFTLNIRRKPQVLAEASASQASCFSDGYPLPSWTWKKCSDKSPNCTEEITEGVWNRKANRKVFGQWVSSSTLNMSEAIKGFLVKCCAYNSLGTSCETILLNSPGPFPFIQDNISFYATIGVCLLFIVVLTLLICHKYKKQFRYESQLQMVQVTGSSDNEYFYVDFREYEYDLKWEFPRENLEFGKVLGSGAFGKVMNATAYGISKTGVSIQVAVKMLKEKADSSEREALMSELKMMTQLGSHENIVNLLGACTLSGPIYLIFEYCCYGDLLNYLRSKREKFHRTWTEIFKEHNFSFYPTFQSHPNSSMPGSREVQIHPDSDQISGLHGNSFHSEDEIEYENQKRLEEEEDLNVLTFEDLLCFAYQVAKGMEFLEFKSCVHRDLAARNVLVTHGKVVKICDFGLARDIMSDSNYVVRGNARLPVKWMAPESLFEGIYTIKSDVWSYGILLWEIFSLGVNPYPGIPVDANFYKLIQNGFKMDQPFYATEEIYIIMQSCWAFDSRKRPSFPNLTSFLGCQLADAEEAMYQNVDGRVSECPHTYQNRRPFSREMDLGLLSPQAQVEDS

`COc1cc2c(Oc3ccc(-c4nc5ccccc5s4)cc3F)ncnc2cc1OCCCN1CCN(C)CC1`: the residual activity on Angiopoietin-1 receptor came to 53%; in test [1], 101%; in [2] it was 89%; in test [3], 97%; in test [4], 113%; in test [5], 38%. Moreover, the residual activity stood at 85% in test [6], 76% in [7], 77% in test [8] and 73% in [9].
For `COc1cc2c(Oc3ccc(-c4nc5ccccc5s4)cc3)ncnc2cc1OCCCN1CCN(C)CC1`, the residual activity at Angiopoietin-1 receptor came to 38%; in test [1], 97%; in [2], 85%; in test [3], 112%; in test [4] it was 97%; in test [5], 47%. For the same molecule, the residual activity was determined as 81% in test [6], 88% in [7], 77% in test [8] and 57% in [9].
Consider `COc1cc2c(Oc3ccc(-c4nc5ccccc5s4)cc3)ncnc2cc1OCCCN1CCCC1`, for which the residual activity is 50% at Angiopoietin-1 receptor; 99% in [1]; 96% in [2]; 98% in test [3]; 90% in [4]; 54% in [5]. Besides, the residual activity was 96% in test [6], 85% in test [7], 101% in test [8] and 59% in [9].
